Measurements published in the NIST ThermoML archive (doi:10.1021/acs.jced.5b00346).
± gives the expanded uncertainty stated by the source.

Assay: molar heat capacity at constant pressure
Conditions: Liquid, Large sample (1 g) DSC

For `CCF` [fluoroethane], the “molar heat capacity at constant pressure” value (305.15 K, 2160 kPa) was 105.01 ± 5.1 J/K/mol, the “molar heat capacity at constant pressure” value (305.15 K, 2580 kPa) was 104.34 ± 5 J/K/mol and the “molar heat capacity at constant pressure” value (305.15 K, 3100 kPa) was 103.9 ± 5 J/K/mol. For the same compound, the “molar heat capacity at constant pressure” value (305.15 K, 3480 kPa) was 104.19 ± 5 J/K/mol, the “molar heat capacity at constant pressure” value (305.15 K, 4030 kPa) was 104.67 ± 5 J/K/mol and the “molar heat capacity at constant pressure” value (305.15 K, 4460 kPa) was 104.39 ± 5 J/K/mol. For the same compound, the “molar heat capacity at constant pressure” value (305.15 K, 4990 kPa) was 103.81 ± 5 J/K/mol, the “molar heat capacity at constant pressure” value (305.15 K, 5490 kPa) was 102.94 ± 5 J/K/mol and the “molar heat capacity at constant pressure” value (310.15 K, 2160 kPa) was 107.51 ± 5.2 J/K/mol. The “molar heat capacity at constant pressure” value (310.15 K, 2580 kPa) was 106.21 ± 5.1 J/K/mol, the “molar heat capacity at constant pressure” value (310.15 K, 3100 kPa) was 106.31 ± 5.1 J/K/mol and the “molar heat capacity at constant pressure” value (310.15 K, 3480 kPa) was 106.26 ± 5.1 J/K/mol. For the same compound, the “molar heat capacity at constant pressure” value (310.15 K, 4030 kPa) was 105.59 ± 5.1 J/K/mol, the “molar heat capacity at constant pressure” value (310.15 K, 4460 kPa) was 105.06 ± 5 J/K/mol and the “molar heat capacity at constant pressure” value (310.15 K, 4990 kPa) was 105.25 ± 5.1 J/K/mol. The “molar heat capacity at constant pressure” value (310.15 K, 5490 kPa) was 104.39 ± 5 J/K/mol, the “molar heat capacity at constant pressure” value (315.15 K, 2160 kPa) was 109.82 ± 5.3 J/K/mol and the “molar heat capacity at constant pressure” value (315.15 K, 2580 kPa) was 108.66 ± 5.2 J/K/mol. The “molar heat capacity at constant pressure” value (315.15 K, 3100 kPa) was 109 ± 5.3 J/K/mol, the “molar heat capacity at constant pressure” value (315.15 K, 3480 kPa) was 108.23 ± 5.2 J/K/mol and the “molar heat capacity at constant pressure” value (315.15 K, 4030 kPa) was 107.36 ± 5.2 J/K/mol. The “molar heat capacity at constant pressure” value (315.15 K, 4460 kPa) was 106.26 ± 5.1 J/K/mol, the “molar heat capacity at constant pressure” value (315.15 K, 4990 kPa) was 106.55 ± 5.1 J/K/mol and the “molar heat capacity at constant pressure” value (315.15 K, 5490 kPa) was 105.83 ± 5.1 J/K/mol. For the same compound, the “molar heat capacity at constant pressure” value (320.15 K, 2160 kPa) was 112.17 ± 5.4 J/K/mol, the “molar heat capacity at constant pressure” value (320.15 K, 2580 kPa) was 111.69 ± 5.4 J/K/mol and the “molar heat capacity at constant pressure” value (320.15 K, 3100 kPa) was 111.64 ± 5.4 J/K/mol. For the same compound, the “molar heat capacity at constant pressure” value (320.15 K, 3480 kPa) was 110.44 ± 5.3 J/K/mol, the “molar heat capacity at constant pressure” value (320.15 K, 4030 kPa) was 109.53 ± 5.3 J/K/mol and the “molar heat capacity at constant pressure” value (320.15 K, 4460 kPa) was 108.18 ± 5.2 J/K/mol. For the same compound, the “molar heat capacity at constant pressure” value (320.15 K, 4990 kPa) was 107.94 ± 5.2 J/K/mol, the “molar heat capacity at constant pressure” value (320.15 K, 5490 kPa) was 107.46 ± 5.2 J/K/mol and the “molar heat capacity at constant pressure” value (325.15 K, 2580 kPa) was 114.86 ± 5.6 J/K/mol. The “molar heat capacity at constant pressure” value (325.15 K, 3100 kPa) was 114.09 ± 5.5 J/K/mol, the “molar heat capacity at constant pressure” value (325.15 K, 3480 kPa) was 112.89 ± 5.5 J/K/mol and the “molar heat capacity at constant pressure” value (325.15 K, 4030 kPa) was 111.88 ± 5.4 J/K/mol. The “molar heat capacity at constant pressure” value (325.15 K, 4460 kPa) was 110.87 ± 5.4 J/K/mol, the “molar heat capacity at constant pressure” value (325.15 K, 4990 kPa) was 109.67 ± 5.3 J/K/mol and the “molar heat capacity at constant pressure” value (325.15 K, 5490 kPa) was 109.34 ± 5.3 J/K/mol. The “molar heat capacity at constant pressure” value (330.15 K, 2580 kPa) was 117.79 ± 5.7 J/K/mol, the “molar heat capacity at constant pressure” value (330.15 K, 3100 kPa) was 116.59 ± 5.7 J/K/mol and the “molar heat capacity at constant pressure” value (330.15 K, 3480 kPa) was 115.92 ± 5.6 J/K/mol. The “molar heat capacity at constant pressure” value (330.15 K, 4030 kPa) was 114.57 ± 5.5 J/K/mol, the “molar heat capacity at constant pressure” value (330.15 K, 4460 kPa) was 114 ± 5.5 J/K/mol and the “molar heat capacity at constant pressure” value (330.15 K, 4990 kPa) was 112.07 ± 5.4 J/K/mol. The “molar heat capacity at constant pressure” value (330.15 K, 5490 kPa) was 111.5 ± 5.4 J/K/mol, the “molar heat capacity at constant pressure” value (335.15 K, 3100 kPa) was 120.68 ± 6 J/K/mol and the “molar heat capacity at constant pressure” value (335.15 K, 3480 kPa) was 119.81 ± 5.9 J/K/mol. The “molar heat capacity at constant pressure” value (335.15 K, 4030 kPa) was 117.99 ± 5.7 J/K/mol, the “molar heat capacity at constant pressure” value (335.15 K, 4460 kPa) was 117.51 ± 5.7 J/K/mol and the “molar heat capacity at constant pressure” value (335.15 K, 4990 kPa) was 115.25 ± 5.6 J/K/mol. For the same compound, the “molar heat capacity at constant pressure” value (335.15 K, 5490 kPa) was 114.14 ± 5.5 J/K/mol, the “molar heat capacity at constant pressure” value (340.15 K, 3100 kPa) was 129.47 ± 6.5 J/K/mol and the “molar heat capacity at constant pressure” value (340.15 K, 3480 kPa) was 125.24 ± 6.2 J/K/mol. The “molar heat capacity at constant pressure” value (340.15 K, 4030 kPa) was 122.65 ± 6 J/K/mol, the “molar heat capacity at constant pressure” value (340.15 K, 4460 kPa) was 121.4 ± 5.9 J/K/mol and the “molar heat capacity at constant pressure” value (340.15 K, 4990 kPa) was 119.28 ± 5.8 J/K/mol. The “molar heat capacity at constant pressure” value (340.15 K, 5490 kPa) was 117.41 ± 5.7 J/K/mol, the “molar heat capacity at constant pressure” value (345.15 K, 3480 kPa) was 132.6 ± 6.5 J/K/mol and the “molar heat capacity at constant pressure” value (345.15 K, 4030 kPa) was 128.7 ± 6.3 J/K/mol. The “molar heat capacity at constant pressure” value (345.15 K, 4460 kPa) was 126.06 ± 6.2 J/K/mol, the “molar heat capacity at constant pressure” value (345.15 K, 4990 kPa) was 124.23 ± 6.1 J/K/mol and the “molar heat capacity at constant pressure” value (345.15 K, 5490 kPa) was 121.69 ± 6 J/K/mol. For the same compound, the “molar heat capacity at constant pressure” value (350.15 K, 4030 kPa) was 136.59 ± 6.9 J/K/mol, the “molar heat capacity at constant pressure” value (350.15 K, 4460 kPa) was 132.45 ± 6.6 J/K/mol and the “molar heat capacity at constant pressure” value (350.15 K, 4990 kPa) was 130.05 ± 6.4 J/K/mol. For the same compound, the “molar heat capacity at constant pressure” value (350.15 K, 5490 kPa) was 127.26 ± 6.2 J/K/mol, the “molar heat capacity at constant pressure” value (355.15 K, 4030 kPa) was 148.79 ± 7.5 J/K/mol and the “molar heat capacity at constant pressure” value (355.15 K, 4460 kPa) was 142.5 ± 7.4 J/K/mol. For the same compound, the “molar heat capacity at constant pressure” value (355.15 K, 4990 kPa) was 136.68 ± 6.8 J/K/mol, the “molar heat capacity at constant pressure” value (355.15 K, 5490 kPa) was 134.37 ± 6.6 J/K/mol and the “molar heat capacity at constant pressure” value (360.15 K, 4460 kPa) was 159.27 ± 8.4 J/K/mol. The “molar heat capacity at constant pressure” value (360.15 K, 4990 kPa) was 147.49 ± 7.5 J/K/mol and the “molar heat capacity at constant pressure” value (360.15 K, 5490 kPa) was 142.78 ± 7.1 J/K/mol.
